Entries after “also recorded” stand apart in the source; their conditions may differ.

These results are taken from patent publication US20240398833A1, “PHARMACEUTICAL COMPOSITION CONTAINING 27-HYDROXYCHOLESTEROL FOR PREVENTING OR TREATING MYELOID LEUKEMIA” (PUSAN NATIONAL UNIVERSITY INDUSTRY-UNIVERSITY COOPERATION …, priority 2021, published 2024).

The test system of series [1] is hematopoietic stem and progenitor cells (HSPC). Format: cell-based, mouse. As to the method: The bone marrow was extracted from the mouse tibia and femur using an FACS staining buffer (phosphate-buffered saline, 2% FBS, penicillin/streptomycin), and then bone marrow cells were extracted by lysing red blood cells using an ACK lysis buffer and treated with 0.62 μM or 6.2 μM 27-hydroxycholesterol for 24 or 48 hours. After treatment, antibodies were attached and the cells were analyzed using FACSCanto2 equipment. As a result, the effect of 27-hydroxycholesterol on decreased hematopoietic stem and progenitor cells (HSPC) was confirmed, and illustrated in FIGS. 1 and 11 [Con: untreated mouse bone marrow cells, Chol: mouse bone marrow cells treated with cholesterol, 27HC: mouse bone marrow cells treated with 27-hydroxycholesterol].

Series [2] has the same test system. Briefly: Reactive oxygen species (DCFDA staining, FACS) in mouse bone marrow cells. Format: cell-based. As to the method:
(§1) Bone marrow cells were extracted from the mouse tibia and femur and treated with 6.2 μM of 27-hydroxycholesterol for 48 hours. In order to confirm apoptosis, the cells treated with 27-hydroxycholesterol were collected, the cells were dissolved in a 1× Annexin binding buffer, added with Annexin V and 7AAD, and analyzed using FACScanto2 equipment, and in order to confirm reactive oxygen species, the cells were dissolved in an FACS staining buffer, added with DCFDA, stained at 37° C. for 30 minutes, and analyzed using FACScanto2 equipment. As a result, an effect of 27-hydroxycholesterol on increased apoptosis and reactive oxygen species (ROS) in hematopoietic stem and progenitor cells (HSPC) was confirmed and illustrated in FIG. 2 [Con or Ctrl: mouse bone marrow cells untreated, Chol: mouse bone marrow cells treated with cholesterol, 27HC: mouse bone marrow cells treated with 27-hydroxycholesterol].

Series [3] concerns HL60 cells and K562 cells. Briefly: Leukemia cell growth comparison, cell count by trypan blue. The following applies: 6.2 μM, 48 hours; for number of cells in leukemia cell lines: HL60 and K562. The class given is cell-based. As to the method:
An acute myeloid leukemia cell line HL60, and a chronic myeloid leukemia cell line, K562 cells were treated with 6.2 μM of cholesterol, 7α-hydroxycholesterol, and 27-hydroxycholesterol for 48 hours and then strained with trypan blue, and then the cell count was confirmed.

For series [4], the system named is myeloid leukemia cells (HL60, KG1a, and K562 cells). Briefly: Leukemia cell count by trypan blue. The class given is cell-based. The note with it: 6.2 μM, 48 hours; negative control HEK293T cells. On the procedure: (§2) Acute myeloid leukemia cell lines HL60 and KG1 α, and chronic myeloid leukemia cell line, K562 cells were treated with 6.2 μM of 27-hydroxycholesterol for 48 hours and then strained with trypan blue, and then the cell count was confirmed. In addition, the cells were added with Annexin V and 7AAD, and the apoptosis was analyzed using FACScanto2 equipment. As a result, it was confirmed that compared to untreated cells (Con) and a cholesterol-treated leukemia cell line (Chol), 27-hydroxycholesterol increased the apoptosis in a leukemia cell line (27HC) to reduce the number of cells, which was illustrated in FIG. 3 [Con: untreated leukemia cell line, Chol: leukemia cell line treated with cholesterol, 27HC: leukemia cell line treated with 27-hydroxycholesterol].

A further series has as its system hematopoietic stem cells. Briefly: Bone marrow transplantation of ex vivo treated donor CD45.1 bone marrow cells. The class given is in vivo, mouse. On the procedure: Bone marrow cells were taken out ex vivo, treated with 6.2 μM of 27-hydroxycholesterol (27-HC), and then subjected to bone marrow transplantation.
Specifically, referring to FIG. 9A, BM cells were extracted from the tibia and femur of a donor CD45.1 mouse, and then treated with vehicle, 6.2 μM cholesterol, and 6.2 μM 27-hydroxycholesterol for 48 hours. Then, bone marrow transplantation was performed by mixing the bone marrow cells of the CD45.2 mouse in a 1:1 ratio and injecting the mixture into the caudal vein of a recipient CD45.2 mouse that had been irradiated with 4 Gy. One month later, blood was extracted from the veins of the recipient mouse that had received bone marrow transplantation, and the cell proportion of the donor mouse was analyzed. Blood was extracted from the mouse jugular vein and added in 10 mM EDTA to prevent blood coagulation, and added in an ACK lysis buffer to lyse red blood cells. It was confirmed that after attaching CD45.1-APC and CD45.2-FITC antibodies, donor mouse CD45.1 cells were analyzed using FACSCanto2 equipment, and 27-hydroxycholesterol suppressed the regeneration and proliferation of hematopoietic stem cells, as illustrated FIGS. 9A to 9E.

Series [5] relates to myeloid leukemia cells (HL60, KG1a, K562 cells). Briefly: Apoptosis (Annexin V / 7AAD, FACS) in leukemia cell lines. Format: cell-based. The following applies: 6.2 μM, 48 hours, compared to control cells. As to the method: as §2
For series [6], the system named is ER stress response pathway. Briefly: Western blot of ER stress proteins (pIRE1α, IRE1α, PERK, ATF4, elF2α). The class given is cell-based. On the technique in general: A western blot detects proteins with antibodies after separation by electrophoresis.
Series [7] concerns myeloid leukemia cells (HL60, KG1a, K562 cells). Briefly: ROS (DCFDA staining) in leukemia cell lines. The class given is cell-based. The following applies: compared to control cells. As to the method: (§3) Next, the apoptosis and the ROS proportions were analyzed through DCFDA staining. In addition, to confirm the effect of 27-Hydroxycholesterol on the differentiation of leukemia cell lines, a differentiation marker, CD11b was stained and analyzed using FACScanto 2 equipment. As a result, it was confirmed that the ROS proportion was high in the leukemia cell line treated with 27-hydroxycholesterol, which was illustrated in FIG. 4 [Con: untreated leukemia cell line, Chol: leukemia cell line treated with cholesterol, 27HC: leukemia cell line treated with 27-hydroxycholesterol].

Series [8] relates to hematopoietic stem and progenitor cells (HSPC). Briefly: Apoptosis (Annexin V / 7AAD, FACS) in mouse bone marrow cells. The class given is cell-based. The note with it: 6.2 μM, 48 hours, compared to control cells. As to the method: as §1
Series [9] relates to LKS cells and hematopoietic progenitor cells (HPC). Briefly: qRT-PCR gene expression in sorted LKS cells and hematopoietic progenitor cells. Format: cell-based, mouse. The note with it: 6.2 μM, 48 hours. As to the method: Bone marrow cells were extracted from the mouse tibia and femur and treated with 6.2 μM of 27-hydroxycholesterol for 48 hours. After treatment, the cells were added with PE-Cy5-CD3, PE-Cy5-CD4, PE-Cy5-CD8, PE-Cy5-CD19, PE-Cy5-B220, PE-Cy5-GR1, PE-Cy5-Ter119, PE-Sca1, APC-Add cKit, PE-Cy7-CD150, and APC-Cy7-CD48 antibodies, stained for 30 minutes at 4° C., and then LKS (Lin-Sca1^+cKit^+) and hematopoietic progenitor cells (Lin^−Sca1^+cKit^+CD48^+) were separated using FACSAria. Thereafter, RNA was extracted from the cells using an RNA extraction kit, and cDNA was synthesized from RNA using a cDNA synthesis kit. The synthesized cDNA was subjected to qRT-PCR using primers related to apoptosis and ER stress and SYBR-green. As a result, it was confirmed that gene expression related to apoptosis and ER stress was increased according to treatment of 27-hydroxycholesterol in LKS and hematopoietic progenitor cells, which were immature cells, compared to total bone marrow cells, as illustrated in FIG. 6.
In general terms: In qPCR the cycle at which signal appears reflects the starting amount.

Series [10] has as its system myeloid leukemia cells (HL60, KG1a, K562 cells). Briefly: Differentiation marker CD11b staining in leukemia cell lines. Format: cell-based. The following applies: compared to control cells. On the procedure:
as §3

Take `CC(=O)N[C@@H](CS)C(=O)O` [N-acetylcysteine, reference compound]: the “decreased proportions of LKS cells, HPC and HSC by 27-hydroxycholesterol, on treating NAC” value in series [1] (27-hydroxycholesterol plus antioxidant NAC, FIG. 2F) is “suppressed”. In [2] (27-hydroxycholesterol plus antioxidant NAC, FIG. 2E), the “ROS in LKS cells, HPC and HSC treated with 27-hydroxycholesterol, on treating NAC” value is reported as “increased”.
Turning to `CC(C)CCC[C@@H](C)[C@H]1CC[C@H]2[C@@H]3[C@H](O)C=C4C[C@@H](O)CC[C@]4(C)[C@H]3CC[C@]12C` [7α-hydroxycholesterol, reference compound], in [3], the “effect on chronic myeloid leukemia cells” value was “no effect” and the “number of cells in leukemia cell lines” value is on record as “did not have a significant effect”. Further, the “effect on acute myeloid leukemia cell lines” value in series [3] (relative to 27-hydroxycholesterol) is “weaker effect”.
In the case of `C[C@@H](CO)CCC[C@@H](C)[C@H]1CC[C@H]2[C@@H]3CC=C4C[C@@H](O)CC[C@]4(C)[C@H]3CC[C@]12C` [27-hydroxycholesterol], in series [4], the “number of myeloid leukemia cells (cell count)” value is on record as “reduce; also recorded: significantly decreased”. Also, the “cytotoxic effect (conclusion of Example 1)” value in [1] is “cytotoxic effect specifically on hematopoietic stem and progenitor cells”. Further, the “effect on LK, LKS, HPC, HSC, monocytes, neutrophils, B cells, T cells” value in series [1] (0.62 μM, 24 hours, FIG. 11B) is listed as “no effect on all cells”. In addition, the “number of LK cells, LKS cells, HPC and HSC” value in series [1] (BM cells treated for 24 hours or 48 hours, FIG. 11A) is “decreased”. Moreover, the “proportions of LKS cells, hematopoietic progenitor cells and hematopoietic stem cells” value in series [1] (BM cells treated with 27-hydroxycholesterol, FIG. 1A/1B) is “decreased”. Further, the “proportions of common myeloid, granulocytic macrophage, megakaryocytic erythroid and common lymphocytic progenitor cells” value in series [1] (BM cells, FIG. 1C/1D) is reported as “decreased”. Also, the “proportions of monocytes, neutrophils, B cells and T cells” value in series [1] (BM cells, FIG. 1E/1F) is recorded as “no change”. Also, the “proportions of LKS cells, HPC and HSC” value in series [1] (Example 2, 6.2 μM, 48 hours, compared to control cells, FIG. 2F) is given as “decreased”. Also, the “cKit+ cells and CD48+ cells” value in series [1] (FIG. 11C) was “reduces”. Besides, the “proportions of donor monocytes, B cells and T cells in blood of recipient mouse” value with hematopoietic stem cells (6.2 μM, 48 hours ex vivo, after transplantation, FIG. 9C) is recorded as “decreased”. In addition, the “engraftment ability (donor CD45.1 cells) in bone marrow cells” value in the series on hematopoietic stem cells (6.2 μM, 48 hours ex vivo, after transplantation, FIG. 9D) was “decreased”. Besides, the “proportions of donor LK cells, LKS cells, HPC and HSC in bone marrow cells of recipient mouse” value with hematopoietic stem cells (6.2 μM, 48 hours ex vivo, after transplantation, FIG. 9E) is listed as “decreased”. For the same compound, in the series with hematopoietic stem cells (6.2 μM, 48 hours ex vivo, one month after transplantation, FIG. 9B), the “engraftment ability (donor CD45.1 cells) in blood” value is given as “decreased”. In addition, in the series with hematopoietic stem cells (donor BM cells treated ex vivo with 6.2 μM for 48 hours, then transplanted), the “regeneration and proliferation of hematopoietic stem cells” value is “suppressed”. The “apoptosis of myeloid leukemia cells” value in series [5] was “increased”. For the same compound, the “ER stress (amount of ER stress protein)” value in series [6] (HL60 cells, 48 hours) is recorded as “increased”. In series [6] (THP1 cells, FIG. 5A), the “ER stress response pathway” value is listed as “increases”. Moreover, the “ROS in LKS cells, HPC and HSC” value in series [2] (6.2 μM, 48 hours, compared to control cells) is “increased”. In [7], the “ROS proportion of myeloid leukemia cells” value was “increased and high”. Further, the “apoptosis in LKS cells, HPC and HSC” value in series [8] was “increased”. Also, in series [9] (LKS and HPC compared to total bone marrow cells), the “gene expression related to apoptosis and ER stress” value is reported as “increased”. In [9] (LKS cells and HPC), the “expression of Bax gene related to apoptosis” value is given as “increased”; the “expression of Chop, Ire1α and Xbp1s genes related to ER stress” value is recorded as “increased”; the “expression of Era gene related to cancer cell growth” value is recorded as “increased”. The “differentiation (CD11b+) of myeloid leukemia cells” value in series [10] was “increased”. Further, the “growth of leukemia cells (HL60 cells and K562 cells)” value in series [3] (FIG. 8A/8B) is “inhibited; also recorded: minimal; also recorded: suppressed”. For the same compound, the “number of cells in leukemia cell lines” value in series [3] was “decreased”.
